Experiments:
[1] = tested on: donor A anti-donor B-primed human PBMC stimulated with PHA; assay: Mitogenic response (PHA) of alloantigen-primed PBMC; type: cell-based; conditions: then removed, priming without tyrphostin = 100%
Experimental: (§1) PBMC from donor A (10×10^6) were stimulated with equal number of irradiated (6000 cGy) donor B PBMC, with and without tyrphostins, in a total volume of 20 ml culture medium supplemented with 10% heat inactivated human AB^+ serum (mixed lymphocyte culture, MLC). Cultures were placed vertically in 25 cm tissue culture flasks in a 5% CO2, humidified incubator at 37° C. After 10 days, cells were washed twice to remove the tyrphostin, and tested for their ability to respond in the MLR and the primary mitogenic response assay described hereinabove.
Cultures were incubated for 48 hours in a total volume of 0.2 ml culture medium supplemented with 10% heat-inactivated human AB^+ serum at 37° C. in a 5% CO2 humidified incubator, pulsed for 16-18 hours with 1 μCi [^3H]TdR/well, and then harvested.
(§2) Harvesting and radioactivity determination: Harvesting was carried out by a multiple-sample cell harvester and radioactivity, expressed in counts per minutes (cpm), was determined in a liquid scintillation β-counter.
(§3) […] After 10 days the tyrphostin was removed and the primed cells were tested for their ability to respond in a secondary MLR assay against the priming (donor B) alloantigens, in a primary MLR assay against third party unrelated alloantigens (donor C), and to non-specific stimulation in a mitogenic assay. […] Percentage of response was calculated according to the formula described above.

[2] = tested on: Human PBMC stimulated with phytohemagglutinin (PHA); assay: Primary mitogenic response assay (PHA), [3H]TdR uptake; type: cell-based; conditions: Table 6, tyrphostin 20 μM
Experimental: Mitogens: Phytohemagglutinin (PHA) and concanavalin A (Con-A) were dissolved in saline and diluted to their final concentration in culture medium. Anti-CD3 (OK3 stock solution 1 μg/ml) was diluted to 0.2 μg/ml final concentration in culture medium.
Responding PBMC cells (10^5) derived from donor A were cultured in flat-bottom microwell plates with and without tyrphostins, and with phytohemagglutinin (PHA) 1 μg/ml, or concanavalin A 18 μg/ml. […] During the last 18 hours of incubation, cultures were pulsed with 1 μCi of [^3H] TdR.
as §2

[3] = tested on: Human PBMC incubated with MHC-mismatched PBMC; assay: One-way mixed lymphocyte reaction (primary MLR), [3H]TdR uptake; type: cell-based; conditions: for % response (alloreactive relative response, cpm with/without tyrphostin x100): FIG. 2, response without tyrphostin = 100%; for cpm: no tyrphostin 10,734 cpm
Experimental: Cell sources: Human peripheral blood mononuclear cells (PBMC) were obtained from healthy human donors after separation on Ficoll-Paque density gradient essentially as described in Boyum, A. Scand. J Lab. Invest. […] Reagents:
One-way mixed lymphocyte reaction (MLR assay): Responding cells derived from donor A (5×10^4) were cultured in round-bottom microwell plates with an equal number (5×10^4) of irradiated (6000 cGy) donor B PBMC with and without tyrphostins. […] During the last 18 hours of incubation, cultures were pulsed with 2 μCi of [^3H] TdR.
as §2
Human PBMC were incubated either with autologous or with MHC-mismatched PBMC in a one-way MLR assay, with and without various concentrations of tyrphostins, as is described hereinabove.
In this case, the alloreactive response without the tyrphostins was considered as 100% response. Percentage of response was calculated according to the following formula: b/a×100; where a=cpm in cultures without tyrphostin, b=cpm in cultures with tyrphostin.

[4] = tested on: donor A anti-donor B-primed human PBMC vs third party unrelated donor C PBMC; assay: Primary MLR of alloantigen-primed PBMC against third party unrelated donor C; type: cell-based; conditions: then removed, priming without tyrphostin = 100%
Experimental: as §1
(§4) The alloreactivity of donor A anti-donor B-primed cells (5×10^4) was tested in a 6-day one-way primary MLR assay against third party unrelated donor C PBMC (10^5), or against donor A cells (background control). Cultures were placed in round-bottom microwell plates. On day 5, cultures were pulsed with 2 μCi [^3H] TdR/well for 16-18 hours and then harvested. […] After 48 hours at 37° C. in a 5% CO2 humidified incubator, cultures were pulsed with 2 μCi [^3H] TdR for another 16-18 hours and then harvested.
as §2, §3

[5] = tested on: Mice with donor skin graft; assay: Skin grafting after tolerogenic treatment (TLI, donor bone marrow cells, tyrphostin, cyclophosphamide); type: in vivo; design: Survivors after 50 days / Survivors after 50 days (%) / Survivors after 100 days / Survivors after 100 days (%): dose or concentration left out as unconfirmed
[6] = tested on: donor A anti-donor B-primed human PBMC vs donor B PBMC; assay: Secondary MLR of alloantigen-primed PBMC against priming donor B; type: cell-based; conditions: then removed, priming without tyrphostin = 100%
Experimental: as §1, §4, §2, §3

[7] = primed 10 days with tyrphostin 25 μM
[8] = primed 10 days with tyrphostin 50 μM

| Structure (SMILES) | % Response to PHA [1, 7] | % Response to PHA [1, 8] | inhibition at 20 µM ([2]; Homo sapiens, PBMC, 96 h, mitogenic response) | cpm ± SD ([2]; PHA without tyrphostin 14,959±644, medium 155±37) | % response (alloreactive relative response, cpm with/without tyrphostin x100) ([3]; primary MLR, tyrphostin 10 μM) | % response (alloreactive relative response, cpm with/without tyrphostin x100) ([3]; primary MLR, tyrphostin 50 μM) | inhibition at 25 µM ([3]; Homo sapiens, PBMC, 144 h, Table 2, primary MLR, tyrphostin 25 μM) | inhibition at 50 µM ([3]; Homo sapiens, PBMC, 144 h, Table 2, primary MLR, tyrphostin 50 μM) | IC50 ([3]; Homo sapiens, PBMC, Table 5, some values marked (mean), read-out: IC 50% (inhibition of Primary MLR)) | cpm ([3]; Table 2, primary MLR, tyrphostin 25 μM) | cpm ([3]; Table 2, primary MLR, tyrphostin 50 μM) | % Response to unrelated stimulator [4, 7] | % Response to unrelated stimulator [4, 8] | Survivors after 50 days (%) ([5]; mice, s.c.) | Survivors after 100 days (%) ([5]; mice, s.c.) | Survivors after 50 days ([5]; mice, s.c., survivors/total) | Survivors after 100 days ([5]; mice, s.c., survivors/total) | % Response to primary stimulator [6, 7] | % Response to primary stimulator [6, 8] | effectiveness of sub-optimal dose by itself ([5]; mouse, in vivo, 100 mg/kg) |
| --- | --- | --- | --- | --- | --- | --- | --- | --- | --- | --- | --- | --- | --- | --- | --- | --- | --- | --- | --- | --- |
| N#CC(=Cc1ccc(O)c(O)c1)C(=O)NCc1ccccc1 [Tyr 1, N-benzyl-2-cyano-3-(3,4-dihydroxyphenyl)-acrylamide] | 290 ± 111^ % | 176 ± 50% | 60% | 6,023 ± 876 cpm | 40% | 4% | 77% | 89% | 45 µM | 2,420 cpm | 1,132 cpm | 99 ± 29^ % | 175 ± 77% | (20%) | (20%) | 1/5 | 1/5 | 22 ± 14% | 19 ± 10% |  |
| O=P1(N(CCCl)CCCl)NCCCO1 (centres unmarked) [cyclophosphamide, reference compound] |  |  |  |  |  |  |  |  |  |  |  |  |  |  |  |  |  |  |  | ineffective |
